Consider 23 compounds from ChEMBL document CHEMBL5523716, “Discovery of novel EGFR-PROTACs capable of degradation of multiple EGFR-mutated proteins” (Eur J Med Chem, 2024).

Type in all cases: functional, cell-based
The test system of assay [1] is A-431. The assay can be described thus: Antiproliferative activity against human A-431 cells harboring EGFR wild type assessed as inhibition of cell growth incubated for 48 to 72 hrs by CCK-8 assay. For orientation: Formazan colour is commonly taken as a measure of viable cells.
Assay [2] concerns A549. Kind of assay: Antiproliferative activity against human A549 cells harboring EGFR wild type assessed as inhibition of cell growth incubated for 48 to 72 hrs by CCK-8 assay.
In assay [3] the test system is NCI-H1975. Kind of assay: Antiproliferative activity against human NCI-H1975 cells harboring EGFR L858R/T790M double mutant assessed as inhibition of cell growth incubated for 48 to 72 hrs by CCK-8 assay.
Assay [4] has as its system HCC827. Kind of assay: Antiproliferative activity against human HCC827 cells harboring EGFR Del19 mutant assessed as inhibition of cell growth incubated for 48 to 72 hrs by CCK-8 assay.
Assay [5] can be described thus: Antiproliferative activity against human H1975-TM cells harboring EGFR L858R/T790M/C797S mutant assessed as inhibition of cell growth incubated for 48 to 72 hrs by CCK-8 assay.

One may read the IC50 as the concentration needed to halve the response being measured. Take `Cc1ncsc1-c1ccc(CNC(=O)[C@@H]2C[C@@H](O)CN2C(=O)[C@@H](NC(=O)COCCOCCn2cc(CCCCCOc3cc4ncnc(Nc5ccc(F)c(Cl)c5)c4cc3NC(=O)/C=C/CN3CCCCC3)nn2)C(C)(C)C)cc1`: the concentration for half-maximal inhibition (IC50) in assay [1] was over 20 µM; in assay [2] it was over 20 µM; in assay [3] it was 1.93 µM; in assay [4], 0.004 µM; in assay [5] it was over 20 µM.

As for `Cc1ncsc1-c1ccc(CNC(=O)[C@@H]2C[C@@H](O)CN2C(=O)[C@@H](NC(=O)COCCOCCOCCn2cc(CCCCCOc3cc4ncnc(Nc5ccc(F)c(Cl)c5)c4cc3NC(=O)/C=C/CN3CCCCC3)nn2)C(C)(C)C)cc1`, the IC50 is over 20 µM in assay [1]; over 20 µM in assay [2]; 2.28 µM in assay [3]; 0.089 µM in assay [4]; over 20 µM in assay [5].

On to `Cc1ncsc1-c1ccc(CNC(=O)[C@@H]2C[C@@H](O)CN2C(=O)[C@@H](NC(=O)CCCCCCCCCCn2cc(CCCCCOc3cc4ncnc(Nc5ccc(F)c(Cl)c5)c4cc3NC(=O)/C=C/CN3CCCCC3)nn2)C(C)(C)C)cc1`, for which the half-inhibitory concentration (IC50) is over 20 µM in assay [1]; over 20 µM in assay [2]; over 20 µM in assay [3]; 0.027 µM in assay [4]; over 20 µM in assay [5].

On to `Cc1ncsc1-c1ccc(CNC(=O)[C@@H]2C[C@@H](O)CN2C(=O)[C@@H](NC(=O)CCCCCCCCCCn2cc(COc3cc4ncnc(Nc5ccc(F)c(Cl)c5)c4cc3NC(=O)/C=C/CN3CCCCC3)nn2)C(C)(C)C)cc1`, for which the IC50 in assay [1] was over 20 µM; in assay [2], over 20 µM; in assay [3] it was over 20 µM; in assay [4] it was 0.006 µM; in assay [5], over 20 µM.

Take `CCN(CC)C/C=C/C(=O)Nc1cc2c(Nc3ccc(F)c(Cl)c3)ncnc2cc1OCc1cn(CCCCCCCCCCC(=O)N[C@H](C(=O)N2C[C@H](O)C[C@H]2C(=O)N[C@H](C)c2ccc(-c3scnc3C)cc2)C(C)(C)C)nn1`: the IC50 in assay [1] was over 20 µM; in assay [2], over 20 µM; in assay [3], 0.69 µM; in assay [4] it was 0.01 µM; in assay [5], over 20 µM.

On to `Cc1ncsc1-c1ccc(CNC(=O)[C@@H]2C[C@@H](O)CN2C(=O)[C@@H](NC(=O)COCCn2cc(CCCCCOc3cc4ncnc(Nc5ccc(F)c(Cl)c5)c4cc3NC(=O)/C=C/CN3CCCCC3)nn2)C(C)(C)C)cc1`, for which the IC50 is over 20 µM in assay [1]; over 20 µM in assay [2]; 14.3 µM in assay [3]; 0.169 µM in assay [4]; over 20 µM in assay [5].

Take `Cc1ncsc1-c1ccc(CNC(=O)[C@@H]2C[C@@H](O)CN2C(=O)[C@@H](NC(=O)CCCCCCCn2cc(COCCOCCOCCOc3cc4ncnc(Nc5ccc(F)c(Cl)c5)c4cc3NC(=O)/C=C/CN3CCCCC3)nn2)C(C)(C)C)cc1`: the IC50 in assay [1] was 11.4 µM; in assay [2], over 20 µM; in assay [3], 2.55 µM; in assay [4], 0.043 µM; in assay [5], over 20 µM.

On to `CCN(CC)C/C=C/C(=O)Nc1cc2c(Nc3ccc(F)c(Cl)c3)ncnc2cc1OCCCCCc1cn(CCCCCCCCCCC(=O)N[C@H](C(=O)N2C[C@H](O)C[C@H]2C(=O)N[C@H](C)c2ccc(-c3scnc3C)cc2)C(C)(C)C)nn1`, for which the IC50 in assay [1] was over 20 µM; in assay [2], over 20 µM; in assay [3], 5.37 µM; in assay [4], 0.01 µM; in assay [5], over 20 µM.

As to `CCN(CC)C/C=C/C(=O)Nc1cc2c(Nc3ccc(F)c(Cl)c3)ncnc2cc1OCc1cn(CCCCC(=O)N[C@H](C(=O)N2C[C@H](O)C[C@H]2C(=O)N[C@H](C)c2ccc(-c3scnc3C)cc2)C(C)(C)C)nn1`, the IC50 in assay [1] was over 20 µM; in assay [2], over 20 µM; in assay [3] it was 7.46 µM; in assay [4] it was 0.039 µM; in assay [5] it was over 20 µM.

As for `CCN(CC)C/C=C/C(=O)Nc1cc2c(Nc3ccc(F)c(Cl)c3)ncnc2cc1OCCCCCc1cn(CCCCCCCC(=O)N[C@H](C(=O)N2C[C@H](O)C[C@H]2C(=O)N[C@H](C)c2ccc(-c3scnc3C)cc2)C(C)(C)C)nn1`, the half-inhibitory concentration (IC50) in assay [1] was over 20 µM; in assay [2], over 20 µM; in assay [3], 0.96 µM; in assay [4] it was 0.03 µM; in assay [5], over 20 µM.

For `Cc1ncsc1-c1ccc(CNC(=O)[C@@H]2C[C@@H](O)CN2C(=O)[C@@H](NC(=O)CCCCCCCn2cc(CCCCCOc3cc4ncnc(Nc5ccc(F)c(Cl)c5)c4cc3NC(=O)/C=C/CN3CCCCC3)nn2)C(C)(C)C)cc1`, the IC50 was over 20 µM in assay [1]; over 20 µM in assay [2]; 5.82 µM in assay [3]; 0.053 µM in assay [4]; over 20 µM in assay [5].

In the case of `CCN(CC)C/C=C/C(=O)Nc1cc2c(Nc3ccc(F)c(Cl)c3)ncnc2cc1OCCCCCc1cn(CCCCC(=O)N[C@H](C(=O)N2C[C@H](O)C[C@H]2C(=O)NCc2ccc(-c3scnc3C)cc2)C(C)(C)C)nn1`, the IC50 is over 20 µM in assay [1]; over 20 µM in assay [2]; 3.5 µM in assay [3]; 0.059 µM in assay [4]; over 20 µM in assay [5].

Take `CCN(CC)C/C=C/C(=O)Nc1cc2c(Nc3ccc(F)c(Cl)c3)ncnc2cc1OCCCCCc1cn(CCCCCCCCCCC(=O)N[C@H](C(=O)N2C[C@H](O)C[C@H]2C(=O)NCc2ccc(-c3scnc3C)cc2)C(C)(C)C)nn1`: the IC50 was over 20 µM in assay [1]; over 20 µM in assay [2]; 3.08 µM in assay [3]; 0.01 µM in assay [4]; over 20 µM in assay [5].

For `Cc1ncsc1-c1ccc(CNC(=O)[C@@H]2C[C@@H](O)CN2C(=O)[C@@H](NC(=O)CCCCCCCCCn2cc(CCCCCOc3cc4ncnc(Nc5ccc(F)c(Cl)c5)c4cc3NC(=O)/C=C/CN3CCCCC3)nn2)C(C)(C)C)cc1`, the half-maximal inhibitory concentration (IC50) was over 20 µM in assay [1]; 9.3 µM in assay [2]; 9.44 µM in assay [3]; 0.018 µM in assay [4]; over 20 µM in assay [5].

With `CCN(CC)C/C=C/C(=O)Nc1cc2c(Nc3ccc(F)c(Cl)c3)ncnc2cc1OCCCCCc1cn(CCCCCCCC(=O)N[C@H](C(=O)N2C[C@H](O)C[C@H]2C(=O)NCc2ccc(-c3scnc3C)cc2)C(C)(C)C)nn1`, the IC50 in assay [1] is over 20 µM; in assay [2] it was over 20 µM; in assay [3], 1.37 µM; in assay [4], 0.031 µM; in assay [5] it was over 20 µM.

For the compound `Cc1ncsc1-c1ccc(CNC(=O)[C@@H]2C[C@@H](O)CN2C(=O)[C@@H](NC(=O)CCCCCCCCCCn2cc(COc3cc4ncnc(Nc5ccc(F)c(Cl)c5)c4cc3NC(=O)/C=C/CN3CCN(C)CC3)nn2)C(C)(C)C)cc1`, the IC50 in assay [1] was over 20 µM; in assay [2], over 20 µM; in assay [3], 14.2 µM; in assay [4], 0.038 µM; in assay [5], over 20 µM.

Take `Cc1ncsc1-c1ccc(CNC(=O)[C@@H]2C[C@@H](O)CN2C(=O)[C@@H](NC(=O)CCCCn2cc(COCCOCCOCCOc3cc4ncnc(Nc5ccc(F)c(Cl)c5)c4cc3NC(=O)/C=C/CN3CCCCC3)nn2)C(C)(C)C)cc1`: the half-maximal inhibitory concentration (IC50) in assay [1] is over 20 µM; in assay [2], over 20 µM; in assay [3] it was 4.96 µM; in assay [4], 0.05 µM; in assay [5], over 20 µM.

For `Cc1ncsc1-c1ccc(CNC(=O)[C@@H]2C[C@@H](O)CN2C(=O)[C@@H](NC(=O)CCCCn2cc(CCCCCOc3cc4ncnc(Nc5ccc(F)c(Cl)c5)c4cc3NC(=O)/C=C/CN3CCCCC3)nn2)C(C)(C)C)cc1`, the 50% inhibitory concentration (IC50) in assay [1] is over 20 µM; in assay [2], over 20 µM; in assay [3], 14.7 µM; in assay [4], 0.046 µM; in assay [5], over 20 µM.

For the compound `Cc1ncsc1-c1ccc(CNC(=O)[C@@H]2C[C@@H](O)CN2C(=O)[C@@H](NC(=O)CCCCCCCCCCn2cc(COCCOCCOCCOc3cc4ncnc(Nc5ccc(F)c(Cl)c5)c4cc3NC(=O)/C=C/CN3CCCCC3)nn2)C(C)(C)C)cc1`, the IC50 in assay [1] was 11.5 µM; in assay [2] it was over 20 µM; in assay [3], 2.36 µM; in assay [4], 0.015 µM; in assay [5], over 20 µM.

As to `Cc1ncsc1-c1ccc(CNC(=O)[C@@H]2C[C@@H](O)CN2C(=O)[C@@H](NC(=O)CCCCCCCCCCn2cc(COc3cc4ncnc(Nc5ccc(F)c(Cl)c5)c4cc3NC(=O)/C=C/CN(C)C)nn2)C(C)(C)C)cc1`, the half-maximal inhibitory concentration (IC50) in assay [1] was over 20 µM; in assay [2], over 20 µM; in assay [3], 1.48 µM; in assay [4], 0.011 µM; in assay [5] it was over 20 µM.

`CCN(CC)C/C=C/C(=O)Nc1cc2c(Nc3ccc(F)c(Cl)c3)ncnc2cc1OCCCCCc1cn(CCOCCOCC(=O)N[C@H](C(=O)N2C[C@H](O)C[C@H]2C(=O)NCc2ccc(-c3scnc3C)cc2)C(C)(C)C)nn1`: the 50% inhibitory concentration (IC50) was over 20 µM in assay [1]; over 20 µM in assay [2]; 2.85 µM in assay [3]; 0.084 µM in assay [4]; over 20 µM in assay [5].

In the case of `Cc1ncsc1-c1ccc(CNC(=O)[C@@H]2C[C@@H](O)CN2C(=O)[C@@H](NC(=O)CCCCCCCCCCn2cc(COc3cc4ncnc(Nc5ccc(F)c(Cl)c5)c4cc3NC(=O)/C=C/CN3CCOCC3)nn2)C(C)(C)C)cc1`, the IC50 in assay [1] is over 20 µM; in assay [2], over 20 µM; in assay [3], over 20 µM; in assay [4], 0.019 µM; in assay [5], over 20 µM.

Regarding `CCN(CC)C/C=C/C(=O)Nc1cc2c(Nc3ccc(F)c(Cl)c3)ncnc2cc1OCCCCCc1cn(CCCCC(=O)N[C@H](C(=O)N2C[C@H](O)C[C@H]2C(=O)N[C@H](C)c2ccc(-c3scnc3C)cc2)C(C)(C)C)nn1`, the IC50 in assay [1] was over 20 µM; in assay [2], over 20 µM; in assay [3], 1.86 µM; in assay [4], 0.054 µM; in assay [5] it was over 20 µM.
